Results from patent US8628938B2, “Polynucleotide encoding UDP-glucuronyl transferase” (Suntory Holdings Limited, priority 2007, dated 2014).

Columns and labels:
PfUGT50 = experiment: UDP-glucuronosyltransferase activity assay (HPLC) with recombinant PfUGT50; format: biochemical, Perilla frutescens; conditions: for glucuronosyl transfer activity to glycosyl acceptor substrate (in words): standard reaction conditions; for relative activity to each substrate, taking the activity to scutellarein as 100%: 100 μM glycosyl acceptor substrate, 2 mM UDP-glucuronic acid, pH 7.5, 30° C., 30 minutes
Method: (§1) Escherichia coli BL21 (DE3) was transformed with each plasmid obtained in 4-(1) above. The transformant obtained was shake cultured overnight at 37° C. in 4 ml of LB medium (10 g/l tryptone, 5 g/l yeast extract, 1 g/l NaCl) supplemented with 50 μg/ml of ampicillin. The culture broth, 4 ml, which reached the stationary phase, was inoculated into 80 ml of the medium with the same composition, followed by shake culture at 37° C. When the cell turbidity (OD600) reached approximately 0.5, 0.4 mM IPTG (isopropyl-β-thiogalactopyranoside) in a final concentration was added to the medium, followed by shake culture at 22° C. for 20 hours. All of the subsequent procedures were performed at 4° C. The transformants cultured were centrifuged (7,000×g, 15 mins.) to collect the cells, and 2 ml/g cell of Buffer S (20 mM sodium phosphate buffer (pH 7.4), 20 mM imidazole, 0.5 M NaCl, 14 mM β-mercaptoethanol) was added to the cells for suspension. Subsequently, ultrasonication was performed (15 secs.×8) followed by centrifugation (15,000×g, 10 mins.). To the supernatant obtained, 0.12% (w/v) polyethyleneimine in a final concentration was added to […], which was then allowed to stand for 30 minutes. The mixture was centrifuged (15,000×g, 10 mins.) and the supernatant was recovered as a crude enzyme solution. The crude enzyme solution was applied to His SpinTrap (GE Healthcare), which had been equilibrated with Buffer S, and centrifuged (70×g, 30 secs.). After washing with 600 μl of Buffer S, the protein bound to the column was stepwise eluted with 600 μl each of Buffer S containing 100, 200 and 500 mM imidazole. The buffer in each fraction eluted was replaced by 20 mM potassium phosphate buffer (pH 7.5) containing 14 mM β-mercaptoethanol, using Microcon YM-30 (Amicon). […] These fractions were mixed and used for analysis.
(§2) Standard reaction conditions are as follows. A reaction solution (2 mM UDP-glucuronic acid, 100 μM glycosyl acceptor substrate, 50 mM potassium phosphate buffer (pH 7.5), enzyme solution), 50 μl, was prepared and the enzyme solution was added to initiate the reaction at 30° C. for 30 minutes. The reaction was stopped by adding 50 μl of 0.5% TFA in CH3CN and provided for HPLC analysis. The conditions for HPLC are as follows: column, Develosil C30-UG-5 (4.6×150 mm); eluant A, 0.1% TFA/H2O; eluant B, 0.08% TFA/90% CH3CN; conditions A for elution (except for aurone, catechin, coumarine and phenylpropanoid), 0 min/5% B→18 min/100% eluant B'18.1 min/5% B→25 min/5% B; conditions B for elution (aurone, catechin, coumarine and phenylpropanoid), 0 min/5% B→20 min/50% eluant B→20.5 min/5% B→25 min/5% B; flow rate, 1 ml/min; detection wavelength: 280 and 350 nm.

S1UGT = experiment: UDP-glucuronosyltransferase activity assay (HPLC) with recombinant S1UGT; format: biochemical, Scutellaria laeteviolacea v. yakusimensis; conditions: for glucuronosyl transfer activity to glycosyl acceptor substrate (in words): standard reaction conditions; for relative activity to each substrate, taking the activity to scutellarein as 100%: 100 μM glycosyl acceptor substrate, 2 mM UDP-glucuronic acid, pH 7.5, 30° C., 30 minutes
Method: as §1, §2

AmUGTcg10 = experiment: UDP-glucuronosyltransferase activity assay (HPLC) with recombinant AmUGTcg10; format: biochemical, Antirrhinum majus; conditions: for glucuronosyl transfer activity to glycosyl acceptor substrate (in words): standard reaction conditions; for relative activity to each substrate, taking the activity to scutellarein as 100%: 100 μM glycosyl acceptor substrate, 2 mM UDP-glucuronic acid, pH 7.5, 30° C., 30 minutes
Method: as §1, §2

SiUGT23 = experiment: UDP-glucuronosyltransferase activity assay (HPLC) with recombinant SiUGT23; format: biochemical, Sesamum indicum; conditions: for relative activity to each substrate, taking the activity to scutellarein as 100%: 100 μM glycosyl acceptor substrate, 2 mM UDP-glucuronic acid, pH 7.5, 30° C., 30 minutes; for glucuronosyl transfer activity to glycosyl acceptor substrate (in words): standard reaction conditions
Method: as §2
cDNA containing full-length ORF of SiUGT23 derived from Sesamum indicum was amplified by a gene-specific primer set (SEQ ID NOs: 24 and 25). cDNA synthesized using total RNA extracted from sesame seeds was used as a template. SiUGT23 was incorporated into Escherichia coli expression vector as in UGT of Perilla frutescens, Scutellaria laeteviolacea v. yakusimensis and Antirrhinum majus in EXAMPLE 1 and recombinant SiUGT23 protein was expressed in the same way to assay the enzyme activity.

[1] = apigenin as glycosyl acceptor substrate

Compound | glucuronosyl transfer activity to glycosyl acceptor substrate (in words) (PfUGT50) | glucuronosyl transfer activity to glycosyl acceptor substrate (in words) (S1UGT) | glucuronosyl transfer activity to glycosyl acceptor substrate (in words) (AmUGTcg10) | relative activity to each substrate, taking the activity to scutellarein as 100% (SiUGT23) [%] | relative activity to each substrate, taking the activity to scutellarein as 100% (S1UGT) [%] | glucuronosyl transfer activity to glycosyl acceptor substrate (in words) (SiUGT23) | relative activity to each substrate, taking the activity to scutellarein as 100% (PfUGT50) [%] | other results
O=C(O)[C@H]1O[C@H](OP(=O)(O)OP(=O)(O)OC[C@H]2O[C@@H](n3ccc(=O)[nH]c3=O)[C@H](O)[C@@H]2O)[C@H](O)[C@@H](O)[C@@H]1O [UDP-glucuronic acid] |  |  |  |  |  |  |  | activity to UDP-activated glycosyl donor (PfUGT50; [1]): showed the activity; activity to UDP-activated glycosyl donor (S1UGT; [1]): showed the activity; activity to UDP-activated glycosyl donor (AmUGTcg10; [1]): showed the activity
O=c1cc(-c2ccc(O)cc2)oc2cc(O)c([C@@H]3O[C@H](CO)[C@@H](O)[C@H](O)[C@H]3O)c(O)c12 [isovitexin] | no activity | no activity | no activity | 0.3 |  |  |  | 
O=c1c(-c2ccc(O)cc2)coc2cc(O)cc(O)c12 [genistein] | no activity |  | no activity |  | 1 | no activity |  | 
COc1cc(/C=C/CO)ccc1O [coniferyl alcohol] | no activity | no activity | no activity |  |  |  |  | 
catechin | no activity | no activity | no activity |  |  | no activity |  | 
O=C(O)/C=C/c1ccc(O)c(O)c1 [caffeic acid] |  |  |  |  |  | no activity |  | 
Oc1ccc([C@H]2OC[C@H]3[C@@H]2CO[C@@H]3c2ccc3c(c2)OCO3)cc1O [SC1, (+)-sesamin catechol 1] | shows the activity | shows the activity |  |  |  |  |  | 
O=C1C[C@@H](c2ccc(O)cc2)Oc2cc(O)cc(O)c21 [naringenin] |  |  |  | 2 | 6 |  | 3 | relative activity to each substrate, taking the activity to scutellarein as 100% (AmUGTcg10): 15%
O=c1c(O)c(-c2ccc(O)cc2)oc2cc(O)cc(O)c12 [kaempferol] |  |  |  | 18 | 14 |  | 3 | relative activity to each substrate, taking the activity to scutellarein as 100% (AmUGTcg10): 28%
COc1cc(-c2cc(=O)c3c(O)cc(O)cc3o2)ccc1O [chrysoeriol] |  |  |  | 6 | 0.02 |  | 18 | relative activity to each substrate, taking the activity to scutellarein as 100% (AmUGTcg10): 18%
O=c1cc(-c2ccc(O)c(O)c2)oc2c([C@@H]3O[C@H](CO)[C@@H](O)[C@H](O)[C@H]3O)c(O)cc(O)c12 [orientin] | no activity | no activity | no activity |  |  | no activity |  | 
O=c1ccc2cc(O)c(O)cc2o1 [esculetin] | no activity |  | no activity | 0.03 | 0.3 |  |  | 
O=c1c(-c2ccc(O)cc2)coc2cc(O)ccc12 [daidzein] | no activity |  | no activity |  | 0.3 | no activity |  | 
O=c1cc(-c2cc(O)c(O)c(O)c2)oc2cc(O)cc(O)c12 [tricetin] |  |  |  | 14.0 | 1.1 |  | 87.9 | relative activity to each substrate, taking the activity to scutellarein as 100% (AmUGTcg10): 23.8%
COc1ccc(-c2cc(=O)c3c(O)cc(O)cc3o2)cc1O [diosmetin] |  |  |  | 4 | 0.3 |  | 62 | relative activity to each substrate, taking the activity to scutellarein as 100% (AmUGTcg10): 26%
O=C(O[C@@H]1Cc2c(O)cc(O)cc2O[C@@H]1c1cc(O)c(O)c(O)c1)c1cc(O)c(O)c(O)c1 [epigallocatechin gallate] | no activity | no activity | no activity |  |  | no activity |  | 
O=C1/C(=C/c2ccc(O)c(O)c2)Oc2cc(O)cc(O)c21 [aureusidin] |  | no activity |  | 13 |  |  | 40 | relative activity to each substrate, taking the activity to scutellarein as 100% (AmUGTcg10): 2%
Oc1ccc([C@H]2OC[C@H]3[C@@H]2CO[C@@H]3c2ccc(O)c(O)c2)cc1O [SC2, (+)-sesamin catechol 2] |  | shows the activity |  |  |  |  |  | 
Oc1ccc(C=Cc2cc(O)cc(O)c2)cc1 [resveratrol] | shows the activity | shows the activity | shows the activity |  |  | shows the activity |  | 
O=c1c(O)c(-c2cc(O)c(O)c(O)c2)oc2cc(O)cc(O)c12 [myricetin] |  | shows the activity |  |  |  |  | 9 | 
Oc1ccc(C2OCC3C(c4ccc(O)c(O)c4)OCC23)cc1O (single isomer, unassigned; (+)) [EC2, (+)-episesamin catechol 2] |  | shows the activity |  |  |  |  |  | 
